According to patent publication US20250388605A1, “HETEROBIFUNCTIONAL COMPOUNDS AND METHODS OF TREATING DISEASE” (Halda Therapeutics OpCo, Inc., priority 2022, published 2025):

What was measured:
[1] = tested on: T-Rex 293 cell line SC3 cells having increased expression of androgen receptor protein due to exposure to doxycycline; assay: Cellular growth inhibition, T-Rex 293 SC3 cells with doxycycline (increased androgen receptor expression), CellTiter-Glo; assay type: cell-based; details: T-Rex 293 SC3 cells with 10 ng/mL doxycycline (increased androgen receptor expression), 72 hours, CellTiter-Glo 2.0
Procedure, shortened: (§1)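 Growth inhibition is measured in an inducible AR-expressing T-Rex 293 clone, SC3, cultured with or without 10 ng/mL doxycycline in hormone-depleted medium. Test compounds are applied for 72 hours. GI50 values derive from CellTiter-Glo 2.0 signal fitted by four-parameter regression.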

T47D cells = assay: Cellular Growth Inhibition Assay for T47D Cells (CellTiter-Glo); assay type: cell-based, human; details: 72 hours
Procedure, shortened: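 GI50 values derive from four-parameter regression of CellTiter-Glo 2.0 luminescence, using zero luminescence as baseline. Human breast cancer T47D cells (3000/well; DMEM, 10% FBS, 0.2 units/mL insulin) were exposed for 72 h to compound dilutions at 0.5% DMSO, with dosing starting 24 h after seeding.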

[2] = tested on: T-Rex 293 cell line SC3 cells lacking increased expression of androgen receptor protein; assay: Cellular growth inhibition, T-Rex 293 SC3 cells without doxycycline (no increased androgen receptor expression), CellTiter-Glo; assay type: cell-based; details: T-Rex 293 SC3 cells not exposed to doxycycline (no increased androgen receptor expression), 72 hours
Procedure, shortened: as §1

GI50 (T47D cells; Homo sapiens) [nM]	GI50 (T47D cells) [nM]	SMILES	GI50 [1] [nM]	GI50 [2] [nM]
< 500		Cn1cc(-c2ccccc2Oc2cccc(OCCOC3CCN(c4ncc(C(=O)N[C@H]5C(C)(C)[C@H](Oc6ccc(C#N)c(Cl)c6)C5(C)C)cn4)CC3)c2)c2cc[nH]c2c1=O [Compound I-61, N-((1r, 3r)-3-(3-chloro-4-cyanophenoxy)-2,2,4,4-tetramethylcyclobutyl)-2-(4-(2-(3-(2-(6-methyl-7-oxo-6,7-dihydro-1H-pyrrolo[2,3-c]pyridin-4-yl)phenoxy)phenoxy)ethoxy)piperidin-1-yl)pyrimidine-5-carboxamide]	< 500	1500 to 3000
< 500		CCS(=O)(=O)Nc1ccc(Oc2cccc(N3CC(OC4CCN(c5ncc(C(=O)N[C@H]6C(C)(C)[C@H](Oc7ccc(C#N)c(Cl)c7)C6(C)C)cn5)CC4)C3)c2)c(-c2cn(C)c(=O)c3[nH]ccc23)c1 [Compound I-80]	< 500	< 500
500 to 1500		Cn1cc(-c2ccccc2Oc2cccc(N3CC(N4CCN(c5ncc(C(=O)N[C@H]6C(C)(C)[C@H](Oc7ccc(C#N)c(Cl)c7)C6(C)C)cn5)CC4)C3)c2)c2cc[nH]c2c1=O [Compound I-90, N-((1r, 3r)-3-(3-chloro-4-cyanophenoxy)-2,2,4,4-tetramethylcyclobutyl)-2-(4-(1-(3-(2-(6-methyl-7-oxo-6,7-dihydro-1H-pyrrolo[2,3-c]pyridin-4-yl)phenoxy)phenyl)azetidin-3-yl)piperazin-1-yl)pyrimidine-5-carboxamide]	< 500	> 3000
< 500		CN(CCCc1ccc(Oc2ccc(C(C)(C)O)cc2-c2cn(C)c(=O)c3[nH]ccc23)cc1)c1ncc(C(=O)N[C@H]2C(C)(C)[C@H](Oc3ccc(C#N)c(Cl)c3)C2(C)C)cn1 [Compound I-211]	< 500	< 500
500 to 1500		CN(c1ccc(Oc2cccc(N3CC(N4CCN(c5ncc(C(=O)N[C@H]6C(C)(C)[C@H](Oc7ccc(C#N)c(Cl)c7)C6(C)C)cn5)CC4)C3)c2)c(-c2cn(C)c(=O)c3[nH]ccc23)c1)S(=O)(=O)C1CC1 [Compound I-88, N-((1r, 3r)-3-(3-chloro-4-cyanophenoxy)-2,2,4,4-tetramethylcyclobutyl)-2-(4-(1-(3-(2-(6-methyl-7-oxo-6,7-dihydro-1H-pyrrolo[2,3-c]pyridin-4-yl)-4-(N-methylcyclopropanesulfonamido)phenoxy)phenyl)azetidin-3-yl)piperazin-1-yl)pyrimidine-5-carboxamide]	< 500	> 3000
	< 500	Cn1cc(-c2cc(C(C)(C)O)ccc2Oc2cccc(CCOC3CCN(c4ncc(C(=O)N[C@H]5C(C)(C)[C@H](Oc6ccc(C#N)c(Cl)c6)C5(C)C)cn4)CC3)c2F)c2cc[nH]c2c1=O [Compound I-147]	< 500	< 500
500 to 1500		Cn1cc(-c2cc(C(C)(C)O)ccc2Oc2ccc(CCOC3CCN(c4ncc(C(=O)N[C@H]5C(C)(C)[C@H](Oc6ccc(C#N)c(Cl)c6)C5(C)C)cn4)CC3)cc2)c2cc[nH]c2c1=O [Compound I-194]	< 500	1500 to 3000
< 500		Cn1cc(-c2cc(C(C)(C)O)ccc2Oc2cccc(OCCOC3CCN(c4ncc(C(=O)N[C@H]5C(C)(C)[C@H](Oc6ccc(C#N)c(Cl)c6)C5(C)C)cn4)CC3)c2)c2cc[nH]c2c1=O [Compound I-56, N-((1r, 3r)-3-(3-chloro-4-cyanophenoxy)-2,2,4,4-tetramethylcyclobutyl)-2-(4-(2-(3-(4-(2-hydroxypropan-2-yl)-2-(6-methyl-7-oxo-6,7-dihydro-1H-pyrrolo[2,3-c]pyridin-4-yl)phenoxy)phenoxy)ethoxy)piperidin-1-yl)pyrimidine-5-carboxamide]	< 500	< 500
< 500		Cn1cc(-c2cc(C(C)(C)O)ccc2Oc2cccc(CCCN3CCN(c4ncc(C(=O)N[C@H]5C(C)(C)[C@H](Oc6ccc(C#N)c(Cl)c6)C5(C)C)cn4)CC3)c2)c2cc[nH]c2c1=O [Compound I-110]	< 500	< 500
500 to 1500		Cn1cc(-c2cc(N)ccc2Oc2cccc(OCCOC3CCN(c4ncc(C(=O)N[C@H]5C(C)(C)[C@H](Oc6ccc(C#N)c(Cl)c6)C5(C)C)cn4)CC3)c2)c2cc[nH]c2c1=O [Compound I-62, 2-(4-(2-(3-(4-amino-2-(6-methyl-7-oxo-6,7-dihydro-1H-pyrrolo[2,3-c]pyridin-4-yl)phenoxy)phenoxy)ethoxy)piperidin-1-yl)-N-((1r, 3r)-3-(3-chloro-4-cyanophenoxy)-2,2,4,4-tetramethylcyclobutyl)pyrimidine-5-carboxamide]	< 500	> 3000
< 500		CC(C)c1ccc(Oc2cccc(OCCN3CCN(c4ncc(C(=O)NC5C(C)(C)C(Oc6ccc(C#N)c(Cl)c6)C5(C)C)cn4)CC3)c2)c(-c2cn(C)c(=O)c3[nH]ccc23)c1 (centres unmarked) [Compound I-107, N-[3-(3-chloro-4-cyano-phenoxy)-2,2,4,4-tetramethyl-cyclobutyl]-2-[4-[2-[3-[4-isopropyl-2-(6-methyl-7-oxo-1H-pyrrolo[2,3-c]pyridin-4-yl)phenoxy]phenoxy]ethyl]piperazin-1-yl]pyrimidine-5-carboxamide]	< 500	> 3000
500 to 1500		Cc1ccc(CCCOC2CCN(c3ncc(C(=O)N[C@H]4C(C)(C)[C@H](Oc5ccc(C#N)c(Cl)c5)C4(C)C)cn3)CC2)cc1Oc1ccc(C(C)(C)O)cc1-c1cn(C)c(=O)c2[nH]ccc12 [Compound I-192]	< 500	500 to 1500
< 500		CC(C)N(CC1CCN(c2ncc(C(=O)N[C@H]3C(C)(C)[C@H](Oc4ccc(C#N)c(Cl)c4)C3(C)C)cn2)CC1)[C@H]1C[C@H](Oc2cccc(Oc3ccc(C(C)(C)O)cc3-c3cn(C)c(=O)c4[nH]ccc34)c2F)C1 [Compound I-214]	< 500	< 500
< 500		Cn1cc(-c2ccccc2Oc2cccc(OCCOC3CCN(c4ncc(C(=O)N[C@H]5C(C)(C)[C@H](Oc6ccc(C#N)c(Cl)c6)C5(C)C)cn4)CC3)c2)c2ccn(C)c2c1=O [Compound I-137]	< 500	< 500

Continued, compound first:

SMILES	GI50 (T47D cells; Homo sapiens) [nM]	GI50 (T47D cells) [nM]	GI50 [1] [nM]	GI50 [2] [nM]
Cn1cc(-c2ccccc2Oc2cccc(N3CC(N4CCN(c5ncc(C(=O)N[C@H]6C(C)(C)[C@H](Oc7ccc(C#N)c(Cl)c7)C6(C)C)cn5)CC4)C3)c2F)c2cc[nH]c2c1=O [Compound I-94]	500 to 1500		< 500	> 3000
CCS(=O)(=O)Nc1ccc(Oc2cccc(N(C)C3CN(CC4CCN(c5ncc(C(=O)NC6C(C)(C)C(Oc7ccc(C#N)c(Cl)c7)C6(C)C)cn5)CC4)C3)c2)c(-c2cn(C)c(=O)c3[nH]ccc23)c1 (centres unmarked) [Compound I-39]			< 500	< 500
CCS(=O)(=O)Nc1ccc(Oc2cccc(N3CCN(C4CN(c5ncc(C(=O)N[C@H]6C(C)(C)[C@H](Oc7ccc(C#N)c(Cl)c7)C6(C)C)cn5)C4)CC3)c2)c(-c2cn(C)c(=O)c3[nH]ccc23)c1 [Compound I-126]	< 500		< 500	> 3000
CCS(=O)(=O)c1ccc(Oc2cccc(OCCOC3CCN(c4ccc(C(=O)N[C@H]5C(C)(C)[C@H](Oc6ccc(C#N)c(Cl)c6)C5(C)C)cn4)CC3)c2F)c(-c2cn(C)c(=O)c3[nH]ccc23)c1 [Compound I-185]			< 500	< 500
CCS(=O)(=O)c1ccc(OC(CCCCN2CCN(c3ncc(C(=O)NC4C(C)(C)C(Oc5ccc(C#N)c(Cl)c5)C4(C)C)cn3)CC2)C2CC2)c(-c2cn(C)c(=O)c3[nH]ccc23)c1 (centres unmarked) [Compound I-223, N-[3-(3-chloro-4-cyano-phenoxy)-2,2,4,4-tetramethyl-cyclobutyl]-2-[4-[5-cyclopropyl-5-[4-ethylsulfonyl-2-(6-methyl-7-oxo-1H-pyrrolo[2,3-c]pyridin-4-yl)phenoxy]pentyl]piperazin-1-yl]pyrimidine-5-carboxamide]	< 500		< 500	< 500
CCS(=O)(=O)Nc1ccc(Oc2cccc(CCOC3CCN(c4ncc(C(=O)N[C@H]5C(C)(C)[C@H](Oc6ccc(C#N)c(Cl)c6)C5(C)C)cn4)CC3)c2)c(-c2cn(C)c(=O)c3[nH]ccc23)c1 [Compound I-19]			< 500	< 500
CCS(=O)(=O)Nc1ccc(Oc2cccc(OCCOC3CCN(c4ccc(C(=O)N[C@H]5C(C)(C)[C@H](Oc6ccc(C#N)c(Cl)c6)C5(C)C)nn4)CC3)c2)c(-c2cn(C)c(=O)c3[nH]ccc23)c1 [Compound I-11]			< 500	< 500
CCS(=O)(=O)Nc1ccc(Oc2cccc(OCCOC3CCN(c4ncc(C(=O)N[C@H]5C(C)(C)[C@H](Oc6ccc(C#N)c(Cl)c6)C5(C)C)cn4)CC3)n2)c(-c2cn(C)c(=O)c3[nH]ccc23)c1 [Compound I-47, N-((1r, 3r)-3-(3-chloro-4-cyanophenoxy)-2,2,4,4-tetra-methylcyclobutyl)-2-(4-(2-((6-(4-(ethylsulfonamido)-2-(6-methyl-7-oxo-6,7-dihydro-1H-pyrrolo[2,3-c]pyridin-4-yl)phenoxy)pyridin-2-yl)oxy)ethoxy)piperidin-1-yl)pyrimidine-5-carboxamide]			< 500	< 500
CCS(=O)(=O)Nc1ccc(Oc2cccc(OCCOCCOC3CCN(c4ncc(C(=O)N[C@H]5C(C)(C)[C@H](Oc6ccc(C#N)c(Cl)c6)C5(C)C)cn4)CC3)c2)c(-c2cn(C)c(=O)c3[nH]ccc23)c1 [Compound I-13]			< 500	< 500
CCS(=O)(=O)Nc1ccc(Oc2cccc(OCCOCCOCCOCCOCCOC3CCN(c4ncc(C(=O)N[C@H]5C(C)(C)[C@H](Oc6ccc(C#N)c(Cl)c6)C5(C)C)cn4)CC3)c2)c(-c2cn(C)c(=O)c3[nH]ccc23)c1 [Compound I-8]			< 500	< 500
